# Tested on: Listeria innocua 33090
# Experiment: colony overlay assay of peptide-secreting E. coli clones (library screening and re-test)
# Type: cell-based
# Design: key: higher activity group (H); equal activity group (E); lower activity group (L)
# Details: library screening; selected colonies pooled by zone size; peptides identified by 454 sequencing, full-length sequences with minimum 20 reads
# Protocol: For the in vivo production of AMPs, we have employed an E. coli expression system that relies on periplasmic-expression of recombinant peptides in a host cell that lacks the lpo membrane protein, thus releasing the peptides present in the periplasmic space outside the cells. When the producer cells are grown into colonies on a solid substrate, it leads to accumulation of the recombinant peptides around the colony and allows for easy library screening. The screening assay used in this study was a modified version of the standard agar diffusion method as previously described. Library-transformed E. coli colonies are overlaid with a tester strain and incubated overnight to allow for peptide expression and tester strain growth. Next day, the plates are inspected for the formation of clear growth inhibition zones around E. coli colonies, which is an indication of active AMP production by the host colony.
# For the construction of Pln-423 mutant library in E. coli, the expression system that consists of a periplasmic-leaky E. coli strain JE5505 and the expression plasmid pFLAG-CTS was employed for direct screening of peptide activities. It should be noted here that this plasmid contains ompA secretion signal sequence and cleavage of this sequence results in a serine residue at the N-terminal of all mature peptides. A total of 1.0×10^5 colonies, approximately 8-fold coverage of the library, were screened against Listeria innocua 33090 in five separate screening experiments. L. innocua was previously deemed as a suitable indicator for pathogenic L. monocytogenes displaying similar bacteriocin sensitivity, therefore it was used as a surrogate strain throughout this study. The selection process involved two criteria; 1) the size of the each inhibition zone was compared to that of wild-type Pln-423 as a correlation to anti-listerial activity level, 2) when several colonies formed inhibition zones that are very similar in size and character, only a few from each group were selected. The colonies were pooled into three groups based on their activities, giving 43 clones in a higher activity group (H), 81 clones in an equal activity group (E), and 241 clones in a lower activity group (L). Their plasmids were extracted from each activity group and analyzed by both Sanger and 454 high-throughput sequencing to identify peptide sequences.
# These clones were also re-tested by colony overlay assay to compare their activities to wild-type Pln-423 based on the size of the inhibition zone around each clone (Figure 2-A). Based on this assay, all ten plantaricin mutants formed larger inhibition zones (10.3±0.5 to 11.4±0.3 mm zone diameter) compared to wild-type Pln-423 (6.2±0.2 mm) against L. innocua 33090. Out of those ten, three clones have a single mutation and […] clones have two mutations and the remaining single clone has three mutations. […] Positions like Ser23, Ser27, His28, and Lys36 were commonly mutated with similar amino acids indicating their potential role on higher peptide activity.
# The screening method used in this study was a modified version of the standard colony overlay method as previously described. All the chemicals and growth media supplements were obtained from either Sigma-Aldrich or Fisher Scientific unless otherwise stated. Transformed E. coli JE5505 cells were diluted to 3000–5000 cfu (determined empirically prior to screening by plating serial dilutions of E. coli suspensions of a known absorbance and counting the colonies after incubation) in 25 ml LB soft agar (0.8%, 45°C) per screening plate and poured into 150 mm petri dishes. Once the media was solidified, they were overlaid with 10 ml LB soft agar (45°C) and incubated at 37°C for 24 h for host-colony formation. Next day, these plates were re-overlaid with 10 ml TSB soft agar containing 1 mM IPTG and the indicator strain Listeria innocua ATCC 33090 (diluted to OD600 = 0.03). […]
row,Substance,activity group by size of inhibition zone compared to wild-type Pln-423
1,KYYGNGVTCGKHSCSVNWGQAFSCAVSHLANFGHGKC* [Pep-1_47],L
2,KYYGNGVTCGKHSCSVNWGQAFSCSWSHLANYGHGKC* [Pep-2_5835],L
3,KYYGNGVTCGKHSCSVNWGQAFSCSVSNLANFGRGKC* [Pep-2_6817],L
4,KYYGNGVTCGKHSCSVNWGQAFSCYASHLANFGHGKC* [Pep-2_5691],L
5,KYYGNGVTCGKHSCSVNWGKAFSCGVSHLANFGHGKC* [Pep-2_1367],L
6,KYYGNGVTCGNYSCSVNWGQAFSCSVVHLAEFGHGKC* [GROUP L-UM-10],L
7,KYYGNGVTCGKHSCSVNWGQAFSCSVTILANFGHGKC* [Pep-2_6136],L
8,KYYGNGVTCGKHSCSVNWAQAFSCSVSHLANFGHGHC* [Pep-2_1213],L and E
9,KYYGNGVTCGKHSCSVNWGQAFKCSVIHLANFGHGKC* [Pep-2_3322],L
10,KYYGNGVTCGKHSCSVNWGQAFECSVSWLANFGHGKC* [Pep-2_3438],L
11,KYYGNGVTCGKHSCSVNWGQAFWCSVSHLANFGHGKC* [Pep-1_36],L
12,KYYGNGVTCGKHSCSVNWGQAFSCSVHRLANFGHGKC* [Pep-2_5917],L
13,KYYGNGVTCGKHSCSVNWGQAFSCSVSILANFGHGKC* [GROUP L-UM-6],L
14,KYYGNGVTCGKHSCSVNWGQAFSCSVSHLANGGHGKC* [Pep-1_89],L
15,KYYGNGVTCGKHSCSVNWGQAFSCSVSHLANFGHRAC* [Pep-2_11153],L
16,KYYGNGVTCGKHSCSVNWGQALSCSVTHLANFGHGKC* [GROUP L-UM-8],L
17,KYYGNGVTCGKHSCSVNWGQAFSCSVHHLANYGHGKC* [Pep-2_5943],L
18,KYYGNGVTCGKHSCSVNWGQAFSCSVTHLANFGHAKC* [Pep-2_6179],E
19,KYYGNGVTCGKHSCSVNWGQAFSCSVSNLANFGHGCC* [Pep-2_6834],L
20,KYYGNGVTCGKHSCSVNWGQAFECSVDHLANFGHGKC* [Pep-2_3428],E
21,KYYGNGVTCGKHSCSVNWGQAFSCTVSHLANFGHGKC* [GROUP L-UM-28],L

row,Substance,activity group by size of inhibition zone compared to wild-type Pln-423
1,KYYGNGVTCGKHSCSVNWGQAFYCSVSHLANFGHGKC* [GROUP L-UM-29],L
2,KYYGNGVTCGKHSCSVNWGQAFCCSVSHLANFGHGKC* [GROUP L-UM-17],L
3,KYYGNGVTCGKHSCSVNYGQAFACSVSHLANFGHGKC* [Pep-2_257],L
4,KYYGNGVTCGKHSCSVNWGQAGSCSVSRLANFGHGKC* [Pep-2_6539],H
5,KYYGNGVTCGKHSCSVNWGQAFSCSVSHLANFGMGYC* [Pep-2_10827],H
6,KYYGNGVTCGKHSCSVNWGRAFSCSVAHLANFGHGKC* [Pep-2_6307],L
7,KYYGNGVTCGKHSCSVNWGQAFSCHVSTLANFGHGKC* [Pep-2_4623],L
8,KYYGNGVTCGKHSCSVNWGQAFSCCVSHLANFGHGKC* [GROUP L-UM-1],L
9,KYYGNGVTCGKHSCSVNWGQAFSCSVSVLANFGHGKC* [Pep-1_64],E
10,KYYGNGVTCGKHSCSVNWGQAFSCSVTHIANFGHGKC* [Pep-2_6142],L
11,KYYGNGVTCGKHSCSVNWGQAFSCSVEHLANFGHGKC* [Pep-1_56],E and H
12,KYYGNGVTCGKHSCSVNWGQACSCSVSHLANFGHGKC* [Pep-1_30],L
13,KYYGNGVTCGKHSCSVNWGEAFVCSVSHLANFGHGKC* [Pep-2_3608],E
14,KYYGNGVTCGKHSCSVNWGQAFSCSVSHLANFGHGCC* [GROUP L-UM-31],L
15,KYYGNGVTCGKHSCSVNWGQAFSCSVSHLAEFGHGKC* [Pep-1_80],L
16,KYYGNGVTCGKHSCSVNWAQAFSCSVSHLANFGHGLC* [Pep-2_12029],L
17,KYYGNGVTCGKHSCSVNWGQAFSCSVSHLANFGEGKC* [Pep-1_98],H
18,KYYGNGVTCGKHSCSVNWGQGFSCAVSHLANFGHGKC* [Pep-2_2447],L
19,KYYGNGVTCGKHSCSVNWGQAFECSVSHLANFGHGKC* [Pep-1_32],L and H
20,KYYGNGVTCGKHSCSVNWGQAFSCNVSHLANFGHGKC* [Pep-1_45],L
21,KYYGNGVTCGKHSCSVNWGQAFSCSVSHLANFGHGKC* [GROUP E-UM-11],E

row,Substance,activity group by size of inhibition zone compared to wild-type Pln-423
1,KYYGNGVTCGKHSCSVNWGQAIVCSVSHLANFGHGKC* [Pep-2_3622],L
2,KYYGNGVTCGKHSCSVNWGQAFSCSVSHLANIGHGEC* [Pep-2_11890],L
3,KYYGNGVTCGKHSCSVNWGQAFSCSVFHLANFGHGLC* [Pep-2_12076],L
4,KYYGNGVTCGKHSCSVNWGQAFSCSMSHLANFGHGKC* [GROUP L-UM-5],L
5,KYYGNGVTCGKHSCSVNWGQAFDCSVSHLANFGHGKC* [GROUP H-UM-1],H
6,KYYGNGVTCGKHSCSVNAGQAFSCAVSHLANFGHGKC* [Pep-2_497],E
7,KYYGNGVTCGKHSCSVNWGQAFSCSVSHLANFGHGKC* [GROUP L-UM-27],L
8,KYYGNGVTCGKHSCSVNYGQAFSCSVWHLANFGHGKC* [Pep-2_282],E
9,KYYGNGVTCGKHSCSVNWGQAFSCLVSNLANFGHGKC* [Pep-2_6772],L
10,KYYGNGVTCGKHSCSVNWGDAFSCSVAHLANFGHGKC* [Pep-2_1487],L
11,KYYGNGVTCGKHSCSVNWGQAFSCSVAHLANFGHGKC* [Pep-1_59],L
12,KYYGNGVTCGKHSCRVNWAQAFSCTVSHLANFGHGKC* [GROUP L-UM-2],L
13,KYYGNGVTCGKHSCSVNWGQAFVCSNSHLANFGHGKC* [Pep-2_3639],L
14,KYYGNGVTCGKHSCSVNWGQSFSCSVSHLANFGHGKC* [GROUP E-UM-5],E
15,KYYGNGVTCGKHSCSVNWGSAFSCSVSHLANFGEGSC* [GROUP L-UM-24],L
16,KYYGNGVTCGKHSCSVNWGQAFSCSVSHLA*FGHGKC* [GROUP L-UM-33],L
17,KYYGNGVTCGKHSCSVNWGQAGSCVVSHLANFGHGKC* [Pep-2_4919],L
18,KYYGNGVTCGKHSCSVNWGQAFSCVWSHLANFGHGKC* [Pep-2_4938],L
19,KYYGNGVTCGKHSCSVNWGQAFECSVSRLANFGHGKC* [Pep-2_3433],E
